One block for each compound: values may come before it.
Legend:
[1] = biological target: T1, Protein kinase Pfmrk (Plasmodium falciparum, UniProt P90584); test: Inhibition of His6x-tagged Plasmodium falciparum Pfmrk expressed in Escherichia coli by microtiter plate scintillation counting
T1 sequence (P90584 whole entry): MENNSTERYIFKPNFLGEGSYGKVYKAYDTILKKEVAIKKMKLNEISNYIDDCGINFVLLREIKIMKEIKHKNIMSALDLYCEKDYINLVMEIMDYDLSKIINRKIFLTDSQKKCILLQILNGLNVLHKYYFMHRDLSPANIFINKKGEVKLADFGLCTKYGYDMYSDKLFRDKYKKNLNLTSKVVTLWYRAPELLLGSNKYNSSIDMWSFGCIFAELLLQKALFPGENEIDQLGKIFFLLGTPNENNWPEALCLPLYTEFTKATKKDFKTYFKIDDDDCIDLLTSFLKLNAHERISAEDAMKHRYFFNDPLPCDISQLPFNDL

[2] = system: RAW264.7; test: Cytotoxicity against mouse RAW264.7 cells after 24 hrs by MTT assay; format: cell-based; conditions: RAW264.7, 24 h
[3] = system: DU-145; test: Cytotoxicity against human DU145 cells after 24 hrs by MTT assay; format: functional, cell-based; conditions: DU-145, 24 h
[4] = system: MCF7; test: Cytotoxicity against human MCF7 cells after 24 hrs by MTT assay; format: functional, cell-based; conditions: MCF7, 24 h
[5] = Cytotoxicity against human Hs578 cells after 24 hrs by MTT assay; format: functional, cell-based; conditions: Hs578, 24 h
[6] = biological target: Cyclin-dependent kinase 2/cyclin A (Homo sapiens, UniProt P24941); test: Inhibition of human CDK2/Cyclin A; format: protein-complex assay
[7] = biological target: Cyclin-dependent kinase 7/ cyclin H (Homo sapiens, UniProt P50613); test: Inhibition of human CDK7/Cyclin H/MAT1; format: protein-complex assay
[8] = biological target: CDK6/cyclin D1 (Homo sapiens, UniProt Q00534); test: Inhibition of human CDK6/Cyclin D1; format: protein-complex assay
[9] = system: LoVo; test: Cytotoxicity against human LoVo cells after 24 hrs by MTT assay; format: functional, cell-based
[10] = system: Plasmodium falciparum; test: Antimalarial activity against chloroquine-resistant Plasmodium falciparum W2 assessed as inhibition of [3H]hypoxanthine incorporation after 24 hrs by microtiter plate scintillation counting; format: functional, organism-based
[11] = biological target: Cyclin-dependent kinase 1/cyclin B1 (Homo sapiens, UniProt P06493); test: Inhibition of human CDK1/cyclin B; format: protein-complex assay
[12] = Therapeutic index, IC50 for Plasmodium falciparum W2 to IC50 for mice (Mus musculus) RAW264.7 cells

Cyclin-dependent kinase 7/ cyclin H, sequence (P51946 whole entry): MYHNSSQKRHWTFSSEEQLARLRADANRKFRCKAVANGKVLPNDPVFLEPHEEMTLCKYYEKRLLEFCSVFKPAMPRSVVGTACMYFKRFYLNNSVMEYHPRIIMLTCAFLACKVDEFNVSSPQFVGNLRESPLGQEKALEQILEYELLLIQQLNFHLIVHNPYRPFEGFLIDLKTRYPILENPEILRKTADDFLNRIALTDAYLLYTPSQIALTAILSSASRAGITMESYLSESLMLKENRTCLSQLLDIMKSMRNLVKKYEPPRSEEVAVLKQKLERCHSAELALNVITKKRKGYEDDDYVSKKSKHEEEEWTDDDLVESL
Cyclin-dependent kinase 7/ cyclin H, sequence (P50613 whole entry): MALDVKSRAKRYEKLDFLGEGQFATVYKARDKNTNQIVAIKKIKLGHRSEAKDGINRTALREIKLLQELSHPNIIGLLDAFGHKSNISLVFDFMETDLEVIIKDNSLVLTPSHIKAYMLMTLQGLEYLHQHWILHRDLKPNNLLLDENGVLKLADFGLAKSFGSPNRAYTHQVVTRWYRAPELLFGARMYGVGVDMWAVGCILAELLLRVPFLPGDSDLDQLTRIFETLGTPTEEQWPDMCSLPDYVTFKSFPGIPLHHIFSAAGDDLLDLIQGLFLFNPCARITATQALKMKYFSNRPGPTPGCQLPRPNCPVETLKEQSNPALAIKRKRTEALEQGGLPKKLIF
Cyclin-dependent kinase 1/cyclin B1, sequence (P06493 whole entry): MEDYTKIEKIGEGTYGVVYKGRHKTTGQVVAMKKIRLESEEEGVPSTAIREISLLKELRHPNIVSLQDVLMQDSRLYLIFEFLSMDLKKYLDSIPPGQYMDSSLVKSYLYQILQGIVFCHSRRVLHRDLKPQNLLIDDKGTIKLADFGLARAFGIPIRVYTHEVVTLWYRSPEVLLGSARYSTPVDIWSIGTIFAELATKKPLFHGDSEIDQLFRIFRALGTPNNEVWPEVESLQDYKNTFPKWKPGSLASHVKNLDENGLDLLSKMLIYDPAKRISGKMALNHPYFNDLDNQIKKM
Cyclin-dependent kinase 1/cyclin B1, sequence (P14635 whole entry, further chain): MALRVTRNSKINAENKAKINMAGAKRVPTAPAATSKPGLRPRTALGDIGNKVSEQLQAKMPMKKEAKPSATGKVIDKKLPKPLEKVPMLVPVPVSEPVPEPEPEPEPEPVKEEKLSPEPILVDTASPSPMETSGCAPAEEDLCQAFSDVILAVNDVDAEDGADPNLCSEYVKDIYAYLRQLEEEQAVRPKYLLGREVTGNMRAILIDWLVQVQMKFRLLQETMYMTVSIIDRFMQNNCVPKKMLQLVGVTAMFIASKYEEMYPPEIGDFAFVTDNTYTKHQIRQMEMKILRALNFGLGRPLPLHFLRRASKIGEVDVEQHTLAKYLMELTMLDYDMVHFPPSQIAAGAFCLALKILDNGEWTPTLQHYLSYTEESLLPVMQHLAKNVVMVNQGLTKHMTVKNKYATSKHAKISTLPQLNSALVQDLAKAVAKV
CDK6/cyclin D1, sequence (P24385 whole entry): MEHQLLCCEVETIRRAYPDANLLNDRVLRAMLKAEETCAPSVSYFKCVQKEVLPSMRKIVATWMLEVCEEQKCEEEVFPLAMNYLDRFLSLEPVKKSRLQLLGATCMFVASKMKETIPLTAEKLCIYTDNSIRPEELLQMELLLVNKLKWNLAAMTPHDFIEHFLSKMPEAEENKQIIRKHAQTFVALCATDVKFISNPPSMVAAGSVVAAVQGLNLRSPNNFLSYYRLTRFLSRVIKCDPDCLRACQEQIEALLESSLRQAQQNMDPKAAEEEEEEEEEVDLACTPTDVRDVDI
CDK6/cyclin D1, sequence (Q00534 whole entry): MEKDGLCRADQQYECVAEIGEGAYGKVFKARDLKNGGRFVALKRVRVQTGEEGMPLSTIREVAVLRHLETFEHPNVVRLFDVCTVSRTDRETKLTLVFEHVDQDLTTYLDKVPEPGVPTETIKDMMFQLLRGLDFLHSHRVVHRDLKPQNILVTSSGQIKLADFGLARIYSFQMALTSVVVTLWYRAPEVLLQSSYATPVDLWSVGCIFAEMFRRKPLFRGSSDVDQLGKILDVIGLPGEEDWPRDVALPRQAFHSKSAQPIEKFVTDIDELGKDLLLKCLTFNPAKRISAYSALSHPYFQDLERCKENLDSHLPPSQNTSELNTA

SMILES: O=C(CBr)N(c1ccccc1)S(=O)(=O)c1cc(Cl)sc1Cl
- IC50 [2]: 89.5 µM
- IC50 [3]: 91 µM
- IC50 [1]: 0.6 µM
- IC50 [4]: 62 µM
- IC50 [5]: 51.1 µM
- IC50 [6]: 28.5 µM
- IC50 [7]: 33.4 µM
- IC50 [8]: 34.9 µM
- IC50 [9]: 71.6 µM
- IC50 [10]: 23.3 µM
- IC50 [11]: 21.5 µM

SMILES: Cc1ccc(Cl)cc1NS(=O)(=O)c1cc(Cl)ccc1Cl
- IC50 [1]: 45.4 µM

SMILES: O=S(=O)(Nc1cccc(C(F)(F)F)c1)c1cc(Cl)c(Cl)cc1Cl
- IC50 [2]: 90.4 µM
- IC50 [3]: 44.2 µM
- IC50 [1]: 0.6 µM
- IC50 [4]: 63.8 µM
- IC50 [5]: 55.1 µM
- IC50 [6]: 10 µM
- IC50 [7]: 0.2 µM
- IC50 [8]: 58.8 µM
- IC50 [9]: 65.1 µM
- IC50 [10]: 24.7 µM
- IC50 [11]: 0.1 µM

SMILES: COc1ccc(S(=O)(=O)Nc2cccc(C(F)(F)F)c2)cc1
- IC50 [1]: 48.4 µM

SMILES: Cc1ccc(NS(=O)(=O)c2cc(Cl)sc2Cl)cc1
- IC50 [2]: 74.7 µM
- IC50 [3]: 81.1 µM
- IC50 [1]: 0.6 µM
- IC50 [4]: 66.1 µM
- IC50 [5]: 40.2 µM
- IC50 [6]: 31.4 µM
- IC50 [7]: 0.8 µM
- IC50 [8]: 51.3 µM
- IC50 [9]: 69.3 µM
- IC50 [10]: 31 µM
- IC50 [11]: 49.3 µM

SMILES: Cc1cc(C)c(NS(=O)(=O)c2ccc(Br)cc2)c(C)c1NS(=O)(=O)c1ccc(Br)cc1
- IC50 [1]: 50.2 µM

SMILES: Cc1ccc(Cl)cc1S(=O)(=O)Nc1ccc(Cl)c(Cl)c1
- IC50 [2]: 76.6 µM
- IC50 [3]: 45.4 µM
- IC50 [1]: 15.1 µM
- IC50 [4]: 57.3 µM
- IC50 [5]: 54 µM
- IC50 [6]: 10.5 µM
- IC50 [7]: 0.4 µM
- IC50 [8]: 110 µM
- IC50 [9]: 55 µM
- IC50 [10]: 17 µM
- IC50 [11]: 0.8 µM

SMILES: O=S(=O)(Nc1cc(Cl)cc(Cl)c1)c1cc(Cl)sc1Cl
- IC50 [1]: 333 µM

SMILES: Cc1ccc(N(SC(Cl)(Cl)Cl)S(=O)(=O)c2cc(Cl)sc2Cl)cc1
- IC50 [2]: 39.3 µM
- IC50 [3]: 53 µM
- IC50 [1]: 0.3 µM
- IC50 [4]: 30.1 µM
- IC50 [5]: 24.9 µM
- IC50 [6]: 11.5 µM
- IC50 [7]: 0.7 µM
- IC50 [8]: 18 µM
- IC50 [9]: 70.3 µM
- IC50 [10]: 21.2 µM
- IC50 [11]: 10.5 µM

SMILES: Cc1ccc(N(C(=O)C(Cl)Cl)S(=O)(=O)c2cc(Cl)sc2Cl)cc1
- IC50 [1]: 127 µM

SMILES: O=C1Cc2c([nH]c3ccc([N+](=O)[O-])cc23)-c2ccccc2N1 [ALSTERPAULLONE]
- IC50 [2]: 2.2 µM
- IC50 [3]: 1.1 µM
- IC50 [4]: 2.7 µM
- IC50 [5]: 1.9 µM
- IC50 [9]: < 1 µM

SMILES: O=C1Nc2ccccc2/C1=C1/Nc2ccccc2C1=O [INDIRUBIN]
- IC50 [2]: 6.1 µM
- IC50 [3]: 6.8 µM
- IC50 [4]: 6.7 µM
- IC50 [5]: 6.9 µM
- IC50 [9]: 2.2 µM
- IC50 [10]: 1.1 µM

SMILES: OC(c1cc(C(F)(F)F)nc2c(C(F)(F)F)cccc12)C1CCCCN1 (stereo not drawn) [MEFLOQUINE]
- IC50 [2]: 6.5 µM
- IC50 [3]: 14.4 µM
- IC50 [4]: 10.6 µM
- IC50 [5]: 12.1 µM
- selectivity ratio [12]: 65
- IC50 [9]: 7.9 µM
- IC50 [10]: 0.1 µM

More lines, in order of falling IC50 [1], values ahead:

- IC50 [1]: 40.1 µM
SMILES: Cc1ccc(N(C(=O)CCl)S(=O)(=O)c2c(Cl)sc(Cl)c2Cl)cc1

- IC50 [1]: 31.5 µM
SMILES: O=S(=O)(Nc1ccc(Cl)cc1)c1c(Cl)sc(Cl)c1Cl

- IC50 [1]: 29.7 µM
SMILES: O=S(=O)(c1cc(Cl)sc1Cl)N(SC(Cl)(Cl)Cl)c1ccccc1

- IC50 [1]: 20.7 µM
SMILES: Cc1cccc(C)c1N(C(=O)CCl)S(=O)(=O)c1cc(Cl)sc1Cl

- IC50 [1]: 19.7 µM
SMILES: O=S(=O)(Nc1ccc(Cl)cc1SC(Cl)(Cl)Cl)c1cc(Cl)sc1Cl

- IC50 [1]: 17.4 µM
SMILES: NS(=O)(=O)c1cc([N+](=O)[O-])c(Cl)s1

- IC50 [1]: 16.5 µM
SMILES: O=S(=O)(Nc1ccc(C(F)(F)F)cc1)c1ccc(C(F)(F)F)cc1

- IC50 [1]: 15.9 µM
SMILES: Cc1ccc(NS(=O)(=O)c2ccc(Br)cc2)cc1Cl

- IC50 [1]: 14.9 µM
SMILES: O=S(=O)(Nc1ccccc1)c1cc(Cl)sc1Cl

- IC50 [1]: 13.1 µM
SMILES: O=S(=O)(Nc1cccc(C(F)(F)F)c1)c1ccc(Cl)cc1

- IC50 [1]: 11 µM
SMILES: Cc1cc(Cl)ccc1NS(=O)(=O)c1cc(Cl)ccc1Cl

- IC50 [1]: 0.8 µM
SMILES: O=C(CBr)N(c1ccc(Cl)cc1)S(=O)(=O)c1cc(Cl)sc1Cl

- IC50 [1]: 0.6 µM
SMILES: N#CC(NCC(O)c1ccccc1)c1ccc(Cl)c(Cl)c1 (stereo not drawn)

- IC50 [1]: 0.4 µM
SMILES: O=C(NNC(=O)c1ccccc1F)c1ccc2ccccc2c1

- IC50 [1]: 0.2 µM
SMILES: Cc1ccccc1NC(=O)NC(=O)c1ccccc1Cl

From ChEMBL document CHEMBL1177790, “Activity of substituted thiophene sulfonamides against malarial and mammalian cyclin dependent protein kinases” (Bioorg Med Chem Lett, 2010)
